Assay results published in PubChem BioAssay (NCI).
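Assay format: 96-well plates, 48-hour exposure. GI50 = concentration required for 50% inhibition of growth. The concentration for full growth arrest is given as TGI.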

Legend:
Assay in all cases: NCI tumour cell line growth inhibition, 48 h
[1] = tested on: HS 578T breast
[2] = tested on: MDA-MB-231 breast
[3] = tested on: T-47D breast
[4] = tested on: DLD-1 colon
[5] = tested on: DMS 114 small cell lung
[6] = tested on: DMS 273 small cell lung
[7] = tested on: HOP-18 NSCLC
[8] = tested on: KM20L2 colon
[9] = tested on: M19-MEL melanoma
[10] = tested on: P388 leukemia
[11] = tested on: P388/ADR leukemia
[12] = tested on: SN12K1 renal
[13] = tested on: SNB-78 CNS
[14] = tested on: XF 498 CNS
[15] = tested on: MDA-N
[16] = tested on: SR leukemia
[17] = tested on: M14 melanoma

`CN1CCN(Cn2nc(-c3cc(F)c(Cl)cc3Cl)oc2=S)CC1` was tested, and the GI50 [1] was 28.5 µM, the TGI [1] was 86.8 µM and the GI50 [2] was 17.8 µM. For the same compound, the TGI [2] was 62.5 µM and the TGI [3] was 27 µM.

`COc1cccc2c1C(=O)c1c(O)c3c(c(O)c1C2=O)CC(O)(C(C)=O)CC3O` (stereo not drawn) showed a TGI [4] of 40.9 µM, a TGI [5] of 24.1 µM and a TGI [6] of 15.6 µM. It also gave a TGI [7] of 41.5 µM, a TGI [8] of 48.2 µM and a TGI [9] of 15.7 µM. It also gave a TGI [10] of 9.69 µM, a TGI [11] of 9.23 µM and a TGI [12] of 10.5 µM. The TGI [13] was 48 µM and the TGI [14] was 1310 nM.

`CN1C(=O)[C@@H]2[C@@H]3c4ccccc4N[C@@H]3c3[nH]c4ccccc4c3[C@@H]2C1=O` was tested, and the TGI [1] was 76.5 µM, the TGI [2] was 63.2 µM and the TGI [15] was greater than 100 µM. It also gave a TGI [16] of 59.3 µM.

For `O=c1[nH]c(-c2ccc(Cl)cc2)cc2ccsc12`, the TGI [17] was greater than 100 µM, the TGI [16] was 12.9 µM and the TGI [3] was 59.9 µM.
